# According to ChEMBL document CHEMBL1201862, “PubChem BioAssay data set” (2004):
#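 A five-concentration, 48-hour dose response in 96-well plates underlies each endpoint, interpolated linearly between surrounding concentrations. GI50 is the concentration that inhibits growth by half.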 Activity calls are given as the source filed them. Rule as the data show it: active = GI50 up to about 1.1 µM and inactive = higher. Where a SMILES comes first, the peptide text is derived from it. The star is where a group is joined. Cbz = O=C(OCc1ccccc1)*
# Columns and labels:
# Assay in all cases: NCI-60 cell line screen, 48 h
# [1] = system: HCC 2998
# [2] = system: A549
# [3] = system: OVCAR-8
# [4] = system: OVCAR-5
# [5] = system: MDA-MB-231
# [6] = system: MDA-MB-435
# [7] = system: SN12C
# [8] = system: COLO 205
# [9] = system: NCI-H23
# [10] = system: ACHN
# [11] = system: Hs-578T
# [12] = system: U-251
# [13] = system: OVCAR-4
# [14] = system: HCT-116
# [15] = system: UO-31
# [16] = system: SK-MEL-5
# [17] = system: SW-620
# [18] = system: HOP-92
# [19] = system: LOX IMVI
# [20] = system: NCI-H522
Structure (SMILES),GI50 [1],GI50 [2],GI50 [3],GI50 [4],GI50 [5],GI50 [6],GI50 [7],GI50 [8],GI50 [9],GI50 [10],GI50 [11],GI50 [12],GI50 [13],GI50 [14],GI50 [15],GI50 [16],GI50 [17],GI50 [18],GI50 [19],GI50 [20]
COc1ccc(/N=N/C(=N/NC(=O)c2cc(Cl)ccc2C(=O)c2ccccc2)c2ccc(N(CCC#N)CCC#N)cc2C)cc1,18.9 µM (inactive),18.8 µM (inactive),16.1 µM (inactive),18.2 µM (inactive),15.1 µM (inactive),27.6 µM (inactive),14.6 µM (inactive),17.6 µM (inactive),18 µM (inactive),25.6 µM (inactive),29.9 µM (inactive),16.4 µM (inactive),21.4 µM (inactive),13.1 µM (inactive),20.3 µM (inactive),15.5 µM (inactive),22.3 µM (inactive),,,
COc1ccc(/C=N/n2c(C)n[nH]c2=O)c(OC)c1,> 100 µM (inactive),> 100 µM (inactive),> 100 µM (inactive),> 100 µM (inactive),> 100 µM (inactive),90.4 µM (inactive),> 100 µM (inactive),> 100 µM (inactive),> 100 µM (inactive),> 100 µM (inactive),3.08 µM (inactive),> 100 µM (inactive),> 100 µM (inactive),> 100 µM (inactive),> 100 µM (inactive),,> 100 µM (inactive),,,
CCOC(=O)C(CC(=O)OC)NC(=O)C(CC(=O)OC)NC(=O)C(CC(=O)OC)NC(=O)C(CC(=O)OC)NC(=O)OCc1ccccc1 (stereo not given) (Cbz-D(OMe)D(OMe)D(OMe)D(OMe)-OEt; configuration not given here),> 100 µM (inactive),> 100 µM (inactive),> 100 µM (inactive),> 100 µM (inactive),> 100 µM (inactive),,> 100 µM (inactive),> 100 µM (inactive),> 100 µM (inactive),> 100 µM (inactive),> 100 µM (inactive),> 100 µM (inactive),,> 100 µM (inactive),> 100 µM (inactive),> 100 µM (inactive),> 100 µM (inactive),> 100 µM (inactive),,
Cc1cc(OP2(=O)NCc3ccncc3O2)ccc1Cl (stereo not given),> 100 µM (inactive),> 100 µM (inactive),> 100 µM (inactive),> 100 µM (inactive),> 100 µM (inactive),> 100 µM (inactive),> 100 µM (inactive),> 100 µM (inactive),> 100 µM (inactive),> 100 µM (inactive),,> 100 µM (inactive),> 100 µM (inactive),> 100 µM (inactive),> 100 µM (inactive),> 100 µM (inactive),> 100 µM (inactive),> 100 µM (inactive),> 100 µM (inactive),
CN(Cc1cnc2nc(N)nc(N)c2n1)c1ccc(C(=O)N[C@@H](CCS(=O)(=O)O)C(=O)O)cc1,0.61 µM (active),0.182 µM (active),21.8 µM (inactive),,> 100 µM (inactive),,> 100 µM (inactive),> 100 µM (inactive),0.458 µM (active),0.225 µM (active),> 100 µM (inactive),> 100 µM (inactive),> 100 µM (inactive),0.0352 µM (active),0.698 µM (active),0.541 µM (active),0.0824 µM (active),> 100 µM (inactive),0.0526 µM (active),0.574 µM (active)
Cc1cnc2nc(-c3ccc4ccccc4c3)cc(O)c2c1,1.4 µM (inactive),0.625 µM (active),0.685 µM (active),0.855 µM (active),1.05 µM (active),,0.966 µM (active),0.342 µM (active),0.434 µM (active),0.658 µM (active),0.449 µM (active),,0.659 µM (active),,0.847 µM (active),,0.359 µM (active),,0.728 µM (active),0.321 µM (active)
Cc1ccc(S(=O)(=O)N/N=C2\C=C[C@]3(CC2)C(=O)N(C)c2ccccc23)cc1,> 100 µM (inactive),> 100 µM (inactive),> 100 µM (inactive),> 100 µM (inactive),> 100 µM (inactive),> 100 µM (inactive),> 100 µM (inactive),> 100 µM (inactive),> 100 µM (inactive),> 100 µM (inactive),98.9 µM (inactive),> 100 µM (inactive),> 100 µM (inactive),> 100 µM (inactive),> 100 µM (inactive),> 100 µM (inactive),> 100 µM (inactive),> 100 µM (inactive),> 100 µM (inactive),
O=C1/C(=C/c2ccc(Oc3ccccc3)cc2)N=C(c2ccccc2)N1c1ccc(S(=O)(=O)Nc2nccs2)cc1,1.56 µM (inactive),25.8 µM (inactive),,40.4 µM (inactive),28.2 µM (inactive),2.62 µM (inactive),39.8 µM (inactive),8.3 µM (inactive),32.7 µM (inactive),37.2 µM (inactive),39.4 µM (inactive),17.1 µM (inactive),38.6 µM (inactive),10.7 µM (inactive),21.8 µM (inactive),17.5 µM (inactive),13.9 µM (inactive),6.78 µM (inactive),21.5 µM (inactive),
CC1OC(OCC2OC(Oc3c(-c4ccc(O)cc4)oc4cc(O)cc(O)c4c3=O)C(OC3OCC(O)(CO)C3O)C(O)C2O)C(O)C(O)C1O (stereo not given),> 100 µM (inactive),> 100 µM (inactive),> 100 µM (inactive),> 100 µM (inactive),,,> 100 µM (inactive),38.1 µM (inactive),> 100 µM (inactive),> 100 µM (inactive),,44.6 µM (inactive),> 100 µM (inactive),31.2 µM (inactive),> 100 µM (inactive),> 100 µM (inactive),79.1 µM (inactive),> 100 µM (inactive),51.9 µM (inactive),> 100 µM (inactive)
N#Cc1nc(C2CCC(=O)O2)oc1N (stereo not given),,,> 100 µM (inactive),> 100 µM (inactive),> 100 µM (inactive),> 100 µM (inactive),> 100 µM (inactive),> 100 µM (inactive),> 100 µM (inactive),> 100 µM (inactive),> 100 µM (inactive),> 100 µM (inactive),,83 µM (inactive),> 100 µM (inactive),> 100 µM (inactive),> 100 µM (inactive),,72.9 µM (inactive),
CCOC(=O)C(NC(=O)NCc1ccc(F)cc1)C(F)(F)F (stereo not given),> 100 µM (inactive),> 100 µM (inactive),> 100 µM (inactive),> 100 µM (inactive),,> 100 µM (inactive),> 100 µM (inactive),> 100 µM (inactive),> 100 µM (inactive),> 100 µM (inactive),> 100 µM (inactive),> 100 µM (inactive),,> 100 µM (inactive),> 100 µM (inactive),> 100 µM (inactive),> 100 µM (inactive),,> 100 µM (inactive),
CN(C)c1ccc(C2CC(=O)CC(c3ccc(N(C)C)cc3)C23C(=O)NC(=S)NC3=O)cc1 (stereo not given),99.3 µM (inactive),> 100 µM (inactive),,> 100 µM (inactive),36 µM (inactive),> 100 µM (inactive),> 100 µM (inactive),> 100 µM (inactive),91.2 µM (inactive),> 100 µM (inactive),30.2 µM (inactive),30.6 µM (inactive),> 100 µM (inactive),> 100 µM (inactive),> 100 µM (inactive),> 100 µM (inactive),> 100 µM (inactive),> 100 µM (inactive),> 100 µM (inactive),
CC12CCC(C(Nc3cc(C(F)(F)F)cc(C(F)(F)F)c3)C1=O)C2(C)C (stereo not given),> 100 µM (inactive),> 100 µM (inactive),> 100 µM (inactive),> 100 µM (inactive),> 100 µM (inactive),> 100 µM (inactive),,> 100 µM (inactive),> 100 µM (inactive),> 100 µM (inactive),,> 100 µM (inactive),> 100 µM (inactive),> 100 µM (inactive),> 100 µM (inactive),> 100 µM (inactive),> 100 µM (inactive),,> 100 µM (inactive),
O=S(=O)([N-]c1nc2ccccc2nc1-[n+]1ccccc1)c1ccccc1,> 100 µM (inactive),> 100 µM (inactive),68.5 µM (inactive),> 100 µM (inactive),28.9 µM (inactive),,> 100 µM (inactive),> 100 µM (inactive),67.8 µM (inactive),> 100 µM (inactive),> 100 µM (inactive),,> 100 µM (inactive),> 100 µM (inactive),> 100 µM (inactive),> 100 µM (inactive),,> 100 µM (inactive),> 100 µM (inactive),> 100 µM (inactive)
COC(=O)C(CC(=O)Nc1ccc(Cl)c(Cl)c1)C(=O)C(=O)NC1C2CC3CC(C2)CC1C3 (stereo not given),> 100 µM (inactive),> 100 µM (inactive),> 100 µM (inactive),> 100 µM (inactive),,,> 100 µM (inactive),> 100 µM (inactive),> 100 µM (inactive),> 100 µM (inactive),,> 100 µM (inactive),> 100 µM (inactive),> 100 µM (inactive),> 100 µM (inactive),> 100 µM (inactive),> 100 µM (inactive),> 100 µM (inactive),> 100 µM (inactive),> 100 µM (inactive)
C/C=C/C1=C(Cl)C(=O)[C@@H](Cl)[C@@]1(O)C(=O)OC [(+)-CRYPTOSPORIPSIN],3.28 µM (inactive),9.86 µM (inactive),2.08 µM (inactive),11.2 µM (inactive),,,2.65 µM (inactive),1.5 µM (inactive),4.08 µM (inactive),2.41 µM (inactive),,5.02 µM (inactive),2.09 µM (inactive),2.84 µM (inactive),5.61 µM (inactive),5.73 µM (inactive),1.06 µM (active),2.25 µM (inactive),2.24 µM (inactive),1.06 µM (active)
